Results as given in ChEMBL document CHEMBL1201862, “PubChem BioAssay data set” (2004).
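Protocol summary: plate cells (96-well), add compound at 5 concentrations, incubate 48 h, interpolate endpoints linearly. GI50 marks 50% less growth.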 The source made the active and inactive calls. No stated cut-off is given here; in the data, active = GI50 up to about 1.1 µM and inactive = higher.

What was measured:
Assay in all cases: NCI anticancer screen, dose series, 48 h
SK-MEL-28 = test system: SK-MEL-28
OVCAR-3 = test system: OVCAR-3
SN12C = test system: SN12C
SF-268 = test system: SF-268
IGROV-1 = test system: IGROV-1
COLO 205 = test system: COLO 205
OVCAR-4 = test system: OVCAR-4
HOP-62 = test system: HOP-62
UO-31 = test system: UO-31
LOX IMVI = test system: LOX IMVI
EKVX = test system: EKVX
HOP-92 = test system: HOP-92
CAKI-1 = test system: CAKI-1
Malme-3M = test system: Malme-3M
CCRF-CEM = test system: CCRF-CEM
DU-145 = test system: DU-145
SF-539 = test system: SF-539
MOLT-4 = test system: MOLT-4
RXF 393 = test system: RXF 393
K562 = test system: K562

Measured: GI50

Cc1nc2c(O)nc3ccccc3c2o1
inactive: SK-MEL-28 > 100 µM | OVCAR-3 > 100 µM | SN12C > 100 µM | SF-268 > 100 µM | IGROV-1 32 µM | COLO 205 > 100 µM | OVCAR-4 > 100 µM | HOP-62 > 100 µM | UO-31 > 100 µM | LOX IMVI > 100 µM | EKVX 48.9 µM | HOP-92 > 100 µM | CAKI-1 > 100 µM | Malme-3M > 100 µM | CCRF-CEM > 100 µM | DU-145 > 100 µM | SF-539 > 100 µM | MOLT-4 > 10 µM | RXF 393 > 100 µM

N#Cc1nc(C#N)n(S(=O)(=O)c2ccccc2)c1NS(=O)(=O)c1ccccc1
inactive: SK-MEL-28 > 100 µM | OVCAR-3 > 100 µM | SN12C > 100 µM | SF-268 > 100 µM | IGROV-1 > 100 µM | COLO 205 > 100 µM | OVCAR-4 > 100 µM | K562 > 100 µM | HOP-62 > 100 µM | UO-31 27 µM | LOX IMVI > 100 µM | EKVX > 53.2 µM | HOP-92 > 100 µM | CAKI-1 > 37.8 µM | Malme-3M > 100 µM | CCRF-CEM > 100 µM | DU-145 > 100 µM | SF-539 > 100 µM | MOLT-4 > 100 µM | RXF 393 > 100 µM

CCOC(=O)c1c(N2CCCC2)[nH]c(=O)c(C(c2c(O)c(C(=O)OCC)c(N3CCCC3)[nH]c2=O)C(C)C)c1O
inactive: SK-MEL-28 > 100 µM | OVCAR-3 > 100 µM | SN12C > 100 µM | SF-268 72.4 µM | COLO 205 > 100 µM | OVCAR-4 > 100 µM | K562 > 100 µM | HOP-62 94.4 µM | UO-31 > 100 µM | LOX IMVI > 100 µM | EKVX > 100 µM | HOP-92 28.7 µM | CAKI-1 48 µM | Malme-3M > 100 µM | CCRF-CEM > 100 µM | DU-145 > 100 µM | SF-539 > 100 µM | MOLT-4 > 100 µM | RXF 393 43 µM

CCc1cc(Cc2cc(CC)c(NC(=O)C(=O)CC(=O)c3sc(-c4cccnc4)nc3C)c(CC)c2)cc(CC)c1NC(=O)C(=O)CC(=O)c1sc(-c2cccnc2)nc1C
inactive: SK-MEL-28 > 100 µM | OVCAR-3 > 100 µM | SN12C > 100 µM | SF-268 > 100 µM | IGROV-1 > 100 µM | COLO 205 > 100 µM | OVCAR-4 > 100 µM | K562 > 100 µM | UO-31 > 100 µM | LOX IMVI > 100 µM | EKVX > 100 µM | HOP-92 > 100 µM | CAKI-1 > 10 µM | Malme-3M > 100 µM | CCRF-CEM > 100 µM | DU-145 > 100 µM | SF-539 > 100 µM | MOLT-4 > 100 µM | RXF 393 > 100 µM

COc1ccc(C)cc1N1C(=O)C2ON(Cc3ccc(CC(N)=O)cc3)C(c3c4ccccc4c(Cl)c4ccccc34)C2C1=O (stereo not given)
inactive: SK-MEL-28 44.1 µM | OVCAR-3 28.4 µM | SN12C 20.2 µM | SF-268 26.5 µM | IGROV-1 33.2 µM | OVCAR-4 24.3 µM | K562 28.8 µM | HOP-62 27.7 µM | UO-31 25.7 µM | LOX IMVI 22.8 µM | EKVX 28.2 µM | HOP-92 32.6 µM | CAKI-1 25.8 µM | Malme-3M 31.1 µM | CCRF-CEM 21.5 µM | DU-145 22.6 µM | MOLT-4 24.9 µM | RXF 393 13.3 µM

Nc1nc(Cl)c(N)c(NCC2(CO)CCCC2)n1
inactive: SK-MEL-28 > 100 µM | OVCAR-3 62.1 µM | SN12C > 100 µM | SF-268 > 100 µM | IGROV-1 84.7 µM | OVCAR-4 > 100 µM | K562 77.1 µM | HOP-62 88.5 µM | UO-31 > 100 µM | LOX IMVI 97.9 µM | EKVX 20.7 µM | HOP-92 > 100 µM | CAKI-1 > 100 µM | Malme-3M > 100 µM | CCRF-CEM > 100 µM | DU-145 > 100 µM | SF-539 > 100 µM | MOLT-4 74.8 µM | RXF 393 78.7 µM

C/C(=N\n1c(Cc2ccccc2)n[nH]c1=O)c1ccc([N+](=O)[O-])cc1
inactive: SK-MEL-28 > 100 µM | OVCAR-3 > 100 µM | SN12C > 100 µM | IGROV-1 > 100 µM | COLO 205 > 100 µM | OVCAR-4 > 100 µM | K562 > 100 µM | HOP-62 49.2 µM | UO-31 > 100 µM | LOX IMVI > 100 µM | EKVX 74.5 µM | HOP-92 25.6 µM | CAKI-1 78.5 µM | Malme-3M > 100 µM | DU-145 > 100 µM | MOLT-4 52.8 µM | RXF 393 16.6 µM

O=C(CC(O)(C(F)(F)F)C(F)(F)F)C(c1ccccc1)C(O)(C(F)(F)F)C(F)(F)F (stereo not given)
inactive: SK-MEL-28 25.4 µM | OVCAR-3 11.5 µM | IGROV-1 5.77 µM | COLO 205 11.4 µM | OVCAR-4 > 100 µM | K562 7.6 µM | UO-31 10.3 µM | LOX IMVI 55.7 µM | EKVX 18.4 µM | HOP-92 3.72 µM | CAKI-1 10.5 µM | Malme-3M 50.4 µM | CCRF-CEM 5.56 µM | DU-145 26.1 µM | SF-539 17.1 µM | MOLT-4 62.8 µM | RXF 393 5.14 µM

O=S(=O)(c1ccccc1)n1c2ccc(Br)cc2c2nc3ccccc3nc21
inactive: SK-MEL-28 > 100 µM | OVCAR-3 > 100 µM | SN12C > 100 µM | SF-268 > 100 µM | IGROV-1 > 100 µM | COLO 205 > 100 µM | OVCAR-4 > 100 µM | K562 > 100 µM | HOP-62 > 100 µM | UO-31 > 100 µM | LOX IMVI > 100 µM | HOP-92 > 100 µM | CAKI-1 > 100 µM | Malme-3M > 100 µM | CCRF-CEM > 100 µM | DU-145 > 100 µM | MOLT-4 > 100 µM | RXF 393 > 100 µM

CC(=O)NNc1nc(C)c(C(/C=C/c2ccc([N+](=O)[O-])cc2)=N/NC(N)=S)s1
inactive: SK-MEL-28 > 100 µM | OVCAR-3 > 100 µM | SN12C > 100 µM | SF-268 > 100 µM | IGROV-1 > 100 µM | COLO 205 > 100 µM | OVCAR-4 > 100 µM | HOP-62 > 100 µM | UO-31 > 100 µM | LOX IMVI > 100 µM | EKVX > 100 µM | HOP-92 > 100 µM | CAKI-1 > 100 µM | Malme-3M > 100 µM | CCRF-CEM > 100 µM | DU-145 > 100 µM | SF-539 > 100 µM | MOLT-4 > 100 µM | RXF 393 > 100 µM

CCOC(=O)/C1=C(\C)N(c2ccc(C)cc2)C(=O)c2ccccc2C(=O)c2c(O)ccc(O)c21
inactive: OVCAR-3 17.8 µM | SN12C 25.9 µM | SF-268 27.7 µM | IGROV-1 18.9 µM | COLO 205 20.1 µM | OVCAR-4 3.66 µM | K562 20.6 µM | HOP-62 20.7 µM | UO-31 27.7 µM | LOX IMVI 16.7 µM | EKVX 24.8 µM | HOP-92 22.7 µM | CAKI-1 20 µM | Malme-3M 18.1 µM | CCRF-CEM 20.6 µM | DU-145 32.2 µM | SF-539 26.5 µM | MOLT-4 14.5 µM | RXF 393 23.2 µM

O=S(=O)(O)c1ccc2c(/N=N/c3ccccc3Cl)c(O)ccc2c1
inactive: SK-MEL-28 > 100 µM | OVCAR-3 > 100 µM | SN12C > 100 µM | SF-268 > 100 µM | IGROV-1 > 100 µM | COLO 205 > 100 µM | OVCAR-4 > 100 µM | K562 > 100 µM | HOP-62 > 100 µM | UO-31 > 100 µM | LOX IMVI > 100 µM | EKVX > 100 µM | HOP-92 > 100 µM | CAKI-1 > 100 µM | Malme-3M > 100 µM | CCRF-CEM > 100 µM | DU-145 > 100 µM | MOLT-4 > 100 µM | RXF 393 > 100 µM

C=C1[C@H](OC(=O)C(C)C)[C@]23CC4(O)[C@@H]5[C@@]6(C)CCC[C@]57C([C@@H]2C[C@@]1(O)[C@H](O)[C@@H]73)N4C6
inactive: SK-MEL-28 > 100 µM | OVCAR-3 > 100 µM | SF-268 > 100 µM | IGROV-1 > 100 µM | COLO 205 > 100 µM | OVCAR-4 > 100 µM | HOP-62 > 100 µM | UO-31 > 100 µM | LOX IMVI > 100 µM | EKVX > 100 µM | HOP-92 > 100 µM | CAKI-1 > 100 µM | Malme-3M > 100 µM | CCRF-CEM > 100 µM | DU-145 > 100 µM | SF-539 > 100 µM | MOLT-4 > 100 µM | RXF 393 > 100 µM

O=NNc1cnc(O)nc1O
inactive: SK-MEL-28 > 100 µM | OVCAR-3 74.8 µM | SN12C > 100 µM | IGROV-1 52.4 µM | COLO 205 > 100 µM | OVCAR-4 > 100 µM | K562 > 100 µM | HOP-62 > 100 µM | UO-31 > 100 µM | LOX IMVI > 100 µM | EKVX > 100 µM | HOP-92 > 100 µM | CAKI-1 > 100 µM | Malme-3M > 100 µM | CCRF-CEM > 100 µM | DU-145 > 100 µM | SF-539 > 100 µM | MOLT-4 > 100 µM | RXF 393 > 100 µM
